Our source for the pest or weed control values is US20230077362A1 (CORTEVA AGRISCIENCE LLC, priority 2019, published 2023).

Like-named read-outs stand apart in the source and are kept apart here.

Holding throughout (type): in vivo
The subject of test [1] is Cabbage Looper (Trichoplusia ni) ("CL"), second instar larvae. Kind of test: Bioassay on cabbage looper (CL), 128-well diet tray assay. The settings on record: Trichoplusia ni. The essentials:
(§1)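 After sealing with a clear self-adhesive lid, the trays are incubated at 25° C. with 14 h light and 10 h dark for 5 to 7 days; mortality in each well is recorded as a percentage and averaged across the eight wells.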

For test [2], the system named is Green Peach Aphid ("GPA") (Myzus persicae), wingless adult and nymph stages. Kind of test: Bioassay on green peach aphid (GPA), foliar spray on infested cabbage seedlings. As to conditions: Myzus persicae, foliar, 72 h. In outline:
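Cabbage seedlings with 2-3 true leaves, infested one day earlier with 20-50 wingless adult and nymph GPA, sprayed to runoff on both leaf sides; solvent check held 20% acetone/methanol (1:1). Live aphids counted after three days at about 25° C; corrected % control = 100*(X−Y)/X versus solvent check.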

Test [3] concerns Beet Armyworm (Spodoptera exigua) ("BAW"), second instar larvae. The test can be described thus: Bioassay on beet armyworm (BAW), 128-well diet tray assay. The settings on record: Spodoptera exigua. In outline: as §1
[4] abbreviates: read-out: CL (Biological Results, rating).
Setting [5] is: read-out: GPA (Biological Results, rating).
[6] abbreviates: read-out: BAW (Biological Results, rating).

On to `Cc1ccc(C(C)C)c(N2C(=O)CS/C2=N\C(=O)Nc2ccc(-c3ncn(-c4cccc(OC(F)(F)F)c4)n3)cc2)c1` [Compound J327, (Z)-1-(3-(2-Isopropyl-5-methylphenyl)-4-oxothiazolidin-2-ylidene)-3-(4-(1-(3-(trifluoromethoxy)phenyl)-1H-1,2,4-triazol-3-yl)phenyl)urea], for which the pest or weed control at 50 µg/cm2 in test [1] (setting [4]) and in test [3] (setting [6]) was 50 to 100% each time. The pest or weed control at 200 µg/mL in test [2] (setting [5]) was in the range of 0 to 80%.

Regarding `COc1ccc(C(C)C)c(N2C(=O)CS/C2=N\C(=O)Nc2ccc(-c3ncn(-c4cccc(OC(F)(F)F)c4)n3)cc2)c1` [Compound J328, (Z)-1-(3-(2-Isopropyl-5-methoxyphenyl)-4-oxothiazolidin-2-ylidene)-3-(4-(1-(3-(trifluoromethoxy)phenyl)-1H-1,2,4-triazol-3-yl)phenyl)urea], the pest or weed control at 50 µg/cm2 in test [1] (setting [4]) and in test [3] (setting [6]) was 50 to 100% in each case. Moreover, in test [2] (setting [5]), the pest or weed control at 200 µg/mL is 0 to 80%.

`Cc1ccc(C(C)C)c(N2C(=O)CS/C2=N\C(=O)Nc2ccc(-c3ncn(-c4ccc(OCC#N)cc4)n3)cc2F)c1` [Compound J344, (Z)-1-(4-(1-(4-(Cyanomethoxy)phenyl)-1H-1,2,4-triazol-3-yl)-2-fluorophenyl)-3-(3-(2-isopropyl-5-methylphenyl)-4-oxothiazolidin-2-ylidene)urea]: the pest or weed control at 50 µg/cm2 in test [1] (setting [4]) and in test [3] (setting [6]) was 50 to 100% each time. Further, in test [2] (setting [5]), the pest or weed control at 200 µg/mL fell in the range of 0 to 80%.

`COC(C)c1ccc(C)cc1N1C(=O)CS/C1=N\C(=O)Nc1ccc(-c2ncn(-c3ccc(SC(F)(F)F)cc3)n2)cc1` (stereo not drawn) [Compound J350, (Z)-1-(3-(2-(1-methoxyethyl)-5-methylphenyl)-4-oxothiazolidin-2-ylidene)-3-(4-(1-(4-((trifluoromethyl)thio)phenyl)-1H-1,2,4-triazol-3-yl)phenyl)urea]: the pest or weed control at 50 µg/cm2 in test [1] (setting [4]) and in test [3] (setting [6]) was 50 to 100% in each case. The pest or weed control at 200 µg/mL in test [2] (setting [5]) fell in the range of 0 to 80%.

Consider `COC(C)c1ccc(C)cc1N1C(=O)CS/C1=N\C(=O)Nc1ccc(-c2ncn(-c3ccc(S(=O)(=O)C(F)(F)F)cc3)n2)cc1C` (stereo not drawn) [Compound J362, (Z)-1-(3-(2-(1-Methoxyethyl)-5-methylphenyl)-4-oxothiazolidin-2-ylidene)-3-(2-methyl-4-(1-(4-((trifluoromethyl)sulfonyl)phenyl)-1H-1,2,4-triazol-3-yl)phenyl)urea], for which the pest or weed control at 50 µg/cm2 in test [1] (read-out: CL rating) and in test [3] (read-out: BAW rating) was 50 to 100% in each case. Further, the pest or weed control at 200 µg/mL in test [2] (read-out: GPA rating) is 0 to 80%.

Take `Cc1ccc(COCC(F)(F)F)c(N2C(=O)CS/C2=N\C(=O)Nc2ccc(-c3ncn(-c4ccc(S(=O)(=O)C(F)(F)F)cc4)n3)cc2F)c1` [Compound J363, (Z)-1-(2-Fluoro-4-(1-(4-((trifluoromethyl)sulfonyl)phenyl)-1H-1,2,4-triazol-3-yl)phenyl)-3-(3-(5-methyl-2-((2,2,2-trifluoroethoxy)methyl)phenyl)-4-oxothiazolidin-2-ylidene)urea]: the pest or weed control at 50 µg/cm2 in test [1] (read-out: CL rating) and in test [3] (read-out: BAW rating) was 50 to 100% in each case. Moreover, the pest or weed control at 200 µg/mL in test [2] (read-out: GPA rating) lay in the range of 0 to 80%.

In the case of `CC(C)c1ccc(N(C)C)cc1N1C(=O)CS/C1=N\C(=O)Nc1ccc(-c2ncn(-c3ccc(S(=O)(=O)C(F)(F)F)cc3)n2)cc1F` [Compound J364, (Z)-1-(3-(5-(Dimethylamino)-2-isopropylphenyl)-4-oxothiazolidin-2-ylidene)-3-(2-fluoro-4-(1-(4-((trifluoromethyl)sulfonyl)phenyl)-1H-1,2,4-triazol-3-yl)phenyl)urea], the pest or weed control at 50 µg/cm2 in test [1] (read-out: CL rating) and in test [3] (read-out: BAW rating) was 50 to 100% in each case. For the same molecule, the pest or weed control at 200 µg/mL in test [2] (read-out: GPA rating) is 0 to 80%.

Consider `Cc1ccc(COCC(F)(F)F)c(N2C(=O)CS/C2=N\C(=O)Nc2ccc(-c3ncn(-c4ccc(S(=O)(=O)C(F)(F)F)cc4)n3)cc2C)c1` [Compound J365, (Z)-1-(3-(5-Methyl-2-((2,2,2-trifluoroethoxy)methyl)phenyl)-4-oxothiazolidin-2-ylidene)-3-(2-methyl-4-(1-(4-((trifluoromethyl)sulfonyl)phenyl)-1H-1,2,4-triazol-3-yl)phenyl)urea], for which the pest or weed control at 50 µg/cm2 in test [1] (read-out: CL rating) and in test [3] (read-out: BAW rating) was 50 to 100% in each case. Moreover, the pest or weed control at 200 µg/mL in test [2] (read-out: GPA rating) fell in the range of 0 to 80%.

As to `Cc1cc(-c2ncn(-c3ccc(S(=O)(=O)C(F)(F)F)cc3)n2)ccc1NC(=O)/N=C1\SCC(=O)N1c1cc(N(C)C)ccc1C(C)C` [Compound J366, (Z)-1-(3-(5-(Dimethylamino)-2-isopropylphenyl)-4-oxothiazolidin-2-ylidene)-3-(2-methyl-4-(1-(4-((trifluoromethyl)sulfonyl)phenyl)-1H-1,2,4-triazol-3-yl)phenyl)urea], the pest or weed control at 50 µg/cm2 in test [1] (read-out: CL rating) and in test [3] (read-out: BAW rating) was 50 to 100% in each case. In addition, the pest or weed control at 200 µg/mL in test [2] (read-out: GPA rating) lay in the range of 0 to 80%.

As to `CC(C)c1ccc(N(C)C)cc1N1C(=O)CS/C1=N\C(=O)Nc1ccc(-c2ncn(-c3ccc(SC(F)(F)F)cc3)n2)cc1` [Compound J368, (Z)-1-(3-(5-(Dimethylamino)-2-isopropylphenyl)-4-oxothiazolidin-2-ylidene)-3-(4-(1-(4-((trifluoromethyl)thio)phenyl)-1H-1,2,4-triazol-3-yl)phenyl)urea], the pest or weed control at 50 µg/cm2 in test [1] (read-out: CL rating) and in test [3] (read-out: BAW rating) was 50 to 100% throughout. Further, in test [2] (read-out: GPA rating), the pest or weed control at 200 µg/mL fell in the range of 0 to 80%.

Consider `Cc1ccc(COCc2ccc(OC(F)(F)F)cc2)c(N2C(=O)CS/C2=N\C(=O)Nc2ccc(-c3ncn(-c4ccc(OC(F)(F)F)cc4)n3)cc2F)c1` [Compound J570, (Z)-1-(2-Fluoro-4-(1-(4-(trifluoromethoxy)phenyl)-1H-1,2,4-triazol-3-yl)phenyl)-3-(3-(5-methyl-2-(((4-(trifluoromethoxy)benzyl)oxy)methyl)phenyl)-4-oxothiazolidin-2-ylidene)urea], for which the pest or weed control at 50 µg/cm2 in test [1] (read-out: CL rating) and in test [3] (read-out: BAW rating) was 50 to 100% throughout. Also, the pest or weed control at 200 µg/mL in test [2] (read-out: GPA rating) lay in the range of 0 to 80%.

Regarding `Cc1ccc(COCc2ccc(F)cc2)c(N2C(=O)CS/C2=N\C(=O)Nc2ccc(-c3ncn(-c4ccc(OC(F)(F)F)cc4)n3)cc2F)c1` [Compound J574, (Z)-1-(2-Fluoro-4-(1-(4-(trifluoromethoxy)phenyl)-1H-1,2,4-triazol-3-yl)phenyl)-3-(3-(2-(((4-fluorobenzyl)oxy)methyl)-5-methylphenyl)-4-oxothiazolidin-2-ylidene)urea], the pest or weed control at 50 µg/cm2 in test [1] (read-out: CL rating) and in test [3] (read-out: BAW rating) was 50 to 100% in each case. Also, the pest or weed control at 200 µg/mL in test [2] (read-out: GPA rating) was 0 to 80%.

As for `CCOCc1ccc(C)cc1N1C(=O)CS/C1=N\C(=O)Nc1ccc(-c2cn(-c3ccc(S(=O)(=O)C(F)(F)F)cc3)cn2)cc1F` [Compound J646, (Z)-1-(3-(2-(Ethoxymethyl)-5-methylphenyl)-4-oxothiazolidin-2-ylidene)-3-(2-fluoro-4-(1-(4-((trifluoromethyl)sulfonyl)phenyl)-1H-imidazol-4-yl)phenyl)urea], the pest or weed control at 50 µg/cm2 in test [1] (read-out: CL rating) and in test [3] (read-out: BAW rating) was 50 to 100% each time. Further, in test [2] (read-out: GPA rating), the pest or weed control at 200 µg/mL lay within 0 to 80%.

Turning to `Cc1ccc(COCC(F)(F)F)c(N2C(=O)CS/C2=N\C(=O)Nc2ccc(-c3cn(-c4ccc(S(=O)(=O)C(F)(F)F)cc4)cn3)cc2F)c1` [Compound J647, (Z)-1-(2-Fluoro-4-(1-(4-((trifluoromethyl)sulfonyl)phenyl)-1H-imidazol-4-yl)phenyl)-3-(3-(5-methyl-2-((2,2,2-trifluoroethoxy)methyl)phenyl)-4-oxothiazolidin-2-ylidene)urea], the pest or weed control at 50 µg/cm2 in test [1] (read-out: CL rating) and in test [3] (read-out: BAW rating) was 50 to 100% throughout. For the same molecule, in test [2] (read-out: GPA rating), the pest or weed control at 200 µg/mL fell in the range of 0 to 80%.

For `Cc1ccc(COCC(F)F)c(N2C(=O)CS/C2=N\C(=O)Nc2ccc(-c3cn(-c4ccc(S(=O)(=O)C(F)(F)F)cc4)cn3)cc2F)c1` [Compound J648, (Z)-1-(3-(2-((2,2-Difluoroethoxy)methyl)-5-methylphenyl)-4-oxothiazolidin-2-ylidene)-3-(2-fluoro-4-(1-(4-((trifluoromethyl)sulfonyl)phenyl)-1H-imidazol-4-yl)phenyl)urea], the pest or weed control at 50 µg/cm2 in test [1] (read-out: CL rating) and in test [3] (read-out: BAW rating) was 50 to 100% each time. Further, the pest or weed control at 200 µg/mL in test [2] (read-out: GPA rating) lay within 0 to 80%.

Regarding `COC(c1ccc(C)cc1N1C(=O)CS/C1=N\C(=O)Nc1ccc(-c2cn(-c3ccc(S(=O)(=O)C(F)(F)F)cc3)cn2)cc1F)C(F)(F)F` (stereo not drawn) [Compound J649, (Z)-1-(2-Fluoro-4-(1-(4-((trifluoromethyl)sulfonyl)phenyl)-1H-imidazol-4-yl)phenyl)-3-(3-(5-methyl-2-(2,2,2-trifluoro-1-methoxyethyl)phenyl)-4-oxothiazolidin-2-ylidene)urea], the pest or weed control at 50 µg/cm2 in test [1] (read-out: CL rating) and in test [3] (read-out: BAW rating) was 50 to 100% each time. For the same molecule, the pest or weed control at 200 µg/mL in test [2] (read-out: GPA rating) lay within 0 to 80%.

Regarding `CC(C)c1ccc(N(C)C)cc1N1C(=O)CS/C1=N\C(=O)Nc1ccc(-c2cn(-c3ccc(S(=O)(=O)C(F)(F)F)cc3)cn2)cc1F` [Compound J650, (Z)-1-(3-(5-(Dimethylamino)-2-isopropylphenyl)-4-oxothiazolidin-2-ylidene)-3-(2-fluoro-4-(1-(4-((trifluoromethyl)sulfonyl)phenyl)-1H-imidazol-4-yl)phenyl)urea], the pest or weed control at 50 µg/cm2 in test [1] (read-out: CL rating) and in test [3] (read-out: BAW rating) was 50 to 100% each time. Further, in test [2] (read-out: GPA rating), the pest or weed control at 200 µg/mL lay within 0 to 80%.
